# Test results as given in PubChem BioAssay (NCI).
#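 Protocol summary: plate cells (96-well), add compound at 5 concentrations, incubate 48 h, interpolate endpoints linearly. TGI denotes the concentration required for complete inhibition of growth.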
# Columns and labels:
# Assay in all cases: NCI tumour cell line growth inhibition, 48 h
# [1] = test system: EKVX NSCLC
# [2] = test system: OVCAR-5 ovarian
# [3] = test system: OVCAR-8 ovarian
# [4] = test system: CCRF-CEM leukemia
# [5] = test system: RPMI-8226 leukemia
# [6] = test system: LOX IMVI melanoma
# [7] = test system: KM12 colon
# [8] = test system: A549 NSCLC
# [9] = test system: RXF 393 renal
# [10] = test system: UACC-257 melanoma
# [11] = test system: KM20L2 colon
# [12] = test system: NCI-H522 lung
# [13] = test system: SK-MEL-28 melanoma
# [14] = test system: M14 melanoma
# [15] = test system: SNB-75 CNS
# [16] = test system: SF-295 CNS
# [17] = test system: DMS 114 small cell lung
# [18] = test system: SW-620 colon
# [19] = test system: SK-OV-3 ovarian
# [20] = test system: UACC-62 melanoma
# [21] = test system: SK-MEL-2 melanoma
# [22] = test system: HCT-15 colon
# [23] = test system: K-562 leukemia
# [24] = test system: HOP-62 NSCLC
# [25] = test system: 786-0 renal
# [26] = test system: MALME-3M melanoma
# [27] = test system: DMS 273 small cell lung
# [28] = test system: DLD-1 colon
# [29] = test system: SN12C renal
# [30] = test system: HL-60(TB) leukemia
# [31] = test system: NCI-H226 lung
# [32] = test system: U251 CNS
# [33] = test system: CAKI-1 renal
# [34] = test system: SF-268 CNS
# [35] = test system: A498 renal
# [36] = test system: HOP-18 NSCLC
# [37] = test system: M19-MEL melanoma
# [38] = test system: LXFL 529 NSCLC
# [39] = test system: SF-539 CNS
# [40] = test system: SK-MEL-5 melanoma
# [41] = test system: SNB-19 CNS
# [42] = test system: NCI-H460 lung
# [43] = test system: MOLT-4 leukemia
# [44] = test system: COLO 205 colon
# [45] = test system: ACHN renal
# [46] = test system: XF 498 CNS
# [47] = test system: OVCAR-4 ovarian
# [48] = test system: IGROV1 ovarian
# [49] = test system: OVCAR-3 ovarian
# [50] = test system: HCC-2998 colon
# [51] = test system: HT29 colon
# [52] = test system: UO-31 renal
# [53] = test system: NCI-H23 lung
# [54] = test system: TK-10 renal
# [55] = test system: RXF-631 renal
# [56] = test system: HOP-92 NSCLC
# [57] = test system: SNB-78 CNS
# [58] = test system: HCT-116 colon
# [59] = test system: SR leukemia
smiles,measurement,setting,value
Cc1ccc(C)c(N=C2NC(=O)C(CC(=O)Nc3ccc(Cl)cc3Cl)S2)c1 (stereo not given),TGI,[1],> 100 µM
same,TGI,[2],> 100 µM
same,TGI,[3],> 100 µM
same,TGI,[4],> 100 µM
same,TGI,[5],> 100 µM
same,TGI,[6],> 100 µM
same,TGI,[7],> 100 µM
same,TGI,[8],> 100 µM
same,TGI,[9],> 100 µM
same,TGI,[10],> 100 µM
same,TGI,[11],> 100 µM
same,TGI,[12],56.5 µM
same,TGI,[13],> 100 µM
same,TGI,[14],> 100 µM
same,TGI,[15],> 100 µM
same,TGI,[16],> 100 µM
same,TGI,[17],> 100 µM
same,TGI,[18],> 100 µM
same,TGI,[19],> 100 µM
same,TGI,[20],> 100 µM
same,TGI,[21],> 100 µM
same,TGI,[22],> 100 µM
same,TGI,[23],> 100 µM
same,TGI,[24],> 100 µM
same,TGI,[25],> 100 µM
same,TGI,[26],> 100 µM
same,TGI,[27],> 100 µM
same,TGI,[28],> 100 µM
same,TGI,[29],> 100 µM
same,TGI,[30],> 100 µM
same,TGI,[31],> 100 µM
same,TGI,[32],> 100 µM
same,TGI,[33],> 100 µM
same,TGI,[34],> 100 µM
same,TGI,[35],96.2 µM
same,TGI,[36],> 100 µM
same,TGI,[37],> 100 µM
same,TGI,[38],> 100 µM
same,TGI,[39],> 100 µM
same,TGI,[40],> 100 µM
same,TGI,[41],> 100 µM
same,TGI,[42],> 100 µM
same,TGI,[43],> 100 µM
same,TGI,[44],> 100 µM
same,TGI,[45],> 100 µM
same,TGI,[46],90.5 µM
same,TGI,[47],> 100 µM
same,TGI,[48],> 100 µM
same,TGI,[49],> 100 µM
same,TGI,[50],> 100 µM
same,TGI,[51],> 100 µM
same,TGI,[52],> 100 µM
same,TGI,[53],> 100 µM
same,TGI,[54],> 100 µM
Cc1cccc(C)c1NC(=O)C(=O)C(C(=O)c1ccccc1-c1ccccc1)C1OC(=O)c2ccccc21 (stereo not given),TGI,[1],65.4 µM
same,TGI,[2],48.9 µM
same,TGI,[55],> 100 µM
same,TGI,[3],> 100 µM
same,TGI,[4],> 100 µM
same,TGI,[56],40 µM
same,TGI,[5],60.1 µM
same,TGI,[6],45 µM
same,TGI,[57],> 100 µM
same,TGI,[7],48.9 µM
same,TGI,[8],72.5 µM
same,TGI,[9],28.4 µM
same,TGI,[10],> 100 µM
same,TGI,[11],67.7 µM
same,TGI,[12],24.9 µM
same,TGI,[13],61.4 µM
same,TGI,[14],29.3 µM
same,TGI,[15],53.4 µM
same,TGI,[16],> 100 µM
same,TGI,[17],32.4 µM
same,TGI,[18],65.2 µM
same,TGI,[19],87.6 µM
same,TGI,[58],27.8 µM
same,TGI,[20],36.7 µM
same,TGI,[21],35.6 µM
same,TGI,[23],> 100 µM
same,TGI,[24],35.7 µM
same,TGI,[25],37 µM
same,TGI,[26],33.4 µM
same,TGI,[28],37.3 µM
same,TGI,[30],88.9 µM
same,TGI,[31],30.3 µM
same,TGI,[32],30.7 µM
same,TGI,[34],78.4 µM
same,TGI,[35],48.9 µM
same,TGI,[37],34.7 µM
same,TGI,[38],27.5 µM
same,TGI,[39],28.3 µM
same,TGI,[40],33.7 µM
same,TGI,[42],78.2 µM
same,TGI,[43],58.1 µM
same,TGI,[44],37.9 µM
same,TGI,[45],> 100 µM
same,TGI,[46],30.9 µM
same,TGI,[48],64.1 µM
same,TGI,[49],38 µM
same,TGI,[50],29.7 µM
same,TGI,[51],> 100 µM
same,TGI,[52],57.6 µM
same,TGI,[53],30 µM
same,TGI,[54],53.7 µM
Cc1cc(S(=O)(=O)O)c(NC(=O)C(=O)Cc2cc(=O)oc3cc(O)ccc23)cc1Cl,TGI,[1],> 100 µM
same,TGI,[2],> 100 µM
same,TGI,[55],> 100 µM
same,TGI,[3],> 100 µM
same,TGI,[4],> 100 µM
same,TGI,[56],> 100 µM
same,TGI,[6],> 100 µM
same,TGI,[7],> 100 µM
same,TGI,[8],> 100 µM
same,TGI,[9],> 100 µM
same,TGI,[10],> 100 µM
same,TGI,[11],> 100 µM
same,TGI,[59],> 100 µM
same,TGI,[12],> 100 µM
same,TGI,[13],> 100 µM
same,TGI,[14],> 100 µM
same,TGI,[15],> 100 µM
same,TGI,[16],> 100 µM
same,TGI,[17],> 100 µM
same,TGI,[18],> 100 µM
same,TGI,[19],> 100 µM
same,TGI,[58],> 100 µM
same,TGI,[20],> 100 µM
same,TGI,[21],> 100 µM
same,TGI,[22],> 100 µM
same,TGI,[23],> 100 µM
same,TGI,[24],> 100 µM
same,TGI,[25],> 100 µM
same,TGI,[26],> 100 µM
same,TGI,[27],> 100 µM
same,TGI,[28],> 100 µM
same,TGI,[29],> 100 µM
same,TGI,[30],> 100 µM
same,TGI,[31],> 100 µM
same,TGI,[32],> 100 µM
same,TGI,[33],> 100 µM
same,TGI,[34],> 100 µM
same,TGI,[35],> 100 µM
same,TGI,[36],> 100 µM
same,TGI,[37],> 100 µM
same,TGI,[39],> 100 µM
same,TGI,[40],> 100 µM
same,TGI,[41],> 100 µM
same,TGI,[42],> 100 µM
same,TGI,[43],> 100 µM
same,TGI,[44],> 100 µM
same,TGI,[45],> 100 µM
same,TGI,[47],> 100 µM
same,TGI,[48],> 100 µM
same,TGI,[49],> 100 µM
same,TGI,[50],> 100 µM
same,TGI,[51],> 100 µM
same,TGI,[52],> 100 µM
same,TGI,[53],> 100 µM
same,TGI,[54],> 100 µM
